pEC50: −log10 of the molar value.
Target: T1, human RORgT (Homo sapiens, UniProt P51449)
T1 construct: expressed in transfected cells
T1 sequence (P51449 267-516): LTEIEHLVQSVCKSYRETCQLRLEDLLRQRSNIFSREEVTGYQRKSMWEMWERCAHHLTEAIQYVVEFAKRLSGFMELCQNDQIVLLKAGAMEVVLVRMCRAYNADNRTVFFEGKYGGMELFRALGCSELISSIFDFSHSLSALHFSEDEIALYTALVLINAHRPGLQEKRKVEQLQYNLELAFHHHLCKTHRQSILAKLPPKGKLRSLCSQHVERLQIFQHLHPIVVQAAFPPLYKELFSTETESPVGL
Assay: RORgT Gal4 Luciferase Reporter Gene Assay
Assay type: cell-based
Details: engineered Jurkat cells overexpressing RORgT (LBD or full length) fused with Gal4 Luc reporter; 18 hours at 37° C.; luminescence
In short: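 Jurkat cells expressing Gal4 Luc with either RORgT LBD (aa267-516) or full-length human RORgT, 10,000 cells/well, treated with compound (40 µM to 0.67 nM final, 3-fold dilutions) for 18 h at 37° C. Steady-Glo luminescence read; inhibition of constitutive activity as % signal-window reduction relative to a control compound.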

| Structure (SMILES) | pEC50 |
| --- | --- |
| O=C(N1CCS(=O)(=O)CC1)N1CC[C@@]2(S(=O)(=O)c3ccccc3)c3ccc(OCc4c(Cl)cccc4Cl)cc3CC[C@@H]12 [Example 84, 4-[(3aR,9bR)-9b-(benzenesulfonyl)-7-[(2,6-dichlorophenyl)methoxy]-1H,2H,3H,3aH,4H,5H,9bH-benzo[e]indole-3-carbonyl]-1λ^6-thiomorpholine-1,1-dione] | 7.82 |
| CS(=O)(=O)N1CC(NC(=O)N2CC[C@@]3(S(=O)(=O)c4ccccc4)c4ccc(OCc5c(Cl)cccc5Cl)cc4CC[C@@H]23)C1 [Example 85, (3aR,9bR)-9b-(benzenesulfonyl)-7-[(2,6-dichlorophenyl)methoxy]-N-(1-methanesulfonylazetidin-3-yl)-1H,2H,3H,3aH,4H,5H,9bH-benzo[e]indole-3-carboxamide] | 7.74 |
| CC(C)(O)CCNC(=O)N1CC[C@@]2(S(=O)(=O)c3ccccc3)c3ccc(OCc4c(Cl)cccc4Cl)cc3CC[C@@H]12 [Example 86, (3aR,9bR)-9b-(benzenesulfonyl)-7-[(2,6-dichlorophenyl)methoxy]-N-(3-hydroxy-3-methylbutyl)-1H,2H,3H,3aH,4H,5H,9bH-benzo[e]indole-3-carboxamide] | 6.80 |
| O=C(Nc1ccncc1)N1CC[C@@]2(S(=O)(=O)c3ccccc3)c3ccc(OCc4c(Cl)cccc4Cl)cc3CC[C@@H]12 [Example 87, (3aR,9bR)-9b-(benzenesulfonyl)-7-[(2,6-dichlorophenyl)methoxy]-N-(pyridin-4-yl)-1H,2H,3H,3aH,4H,5H,9bH-benzo[e]indole-3-carboxamide] | 7.41 |
| O=C(N1CC(O)C1)N1CC[C@@]2(S(=O)(=O)c3ccccc3)c3ccc(OCc4c(Cl)cccc4Cl)cc3CC[C@@H]12 [Example 88, 1-[(3aR,9bR)-9b-(benzenesulfonyl)-7-[(2,6-dichlorophenyl)methoxy]-1H,2H,3H,3aH,4H,5H,9bH-benzo[e]indole-3-carbonyl] azetidin-3-ol] | 6.52 |
| O=C(NC1CCOCC1)N1CC[C@@]2(S(=O)(=O)c3ccccc3)c3ccc(OCc4c(Cl)cccc4Cl)cc3CC[C@@H]12 [Example 89, (3aR,9bR)-9b-(benzenesulfonyl)-7-[(2,6-dichlorophenyl)methoxy]-N-(oxan-4-yl)-1H,2H,3H,3aH,4H,5H,9bH-benzo[e]indole-3-carboxamide] | 6.94 |
| CS(=O)(=O)N[C@@H]1CCCN(C(=O)N2CC[C@@]3(S(=O)(=O)c4ccccc4)c4ccc(OCc5c(Cl)cccc5Cl)cc4CC[C@@H]23)C1 [Example 90, N-[(3R)-1-[(3aR,9bR)-9b-(benzenesulfonyl)-7-[(2,6-dichlorophenyl)methoxy]-1H,2H,3H,3aH,4H,5H,9bH-benzo[e]indole-3-carbonyl]piperidin-3-yl]methanesulfonamide] | 6.15 |
| CC(C)(O)CNC(=O)N1CC[C@@]2(S(=O)(=O)c3ccccc3)c3ccc(OCc4c(Cl)cccc4Cl)cc3CC[C@@H]12 [Example 91, (3aR,9bR)-9b-(benzenesulfonyl)-7-[(2,6-dichlorophenyl)methoxy]-N-(2-hydroxy-2-methylpropyl)-1H,2H,3H,3aH,4H,5H,9bH-benzo[e]indole-3-carboxamide] | 6.98 |
| CS(=O)(=O)CCNC(=O)N1CC[C@@]2(S(=O)(=O)c3ccccc3)c3ccc(OCc4c(Cl)cccc4Cl)cc3CC[C@@H]12 [Example 92, (3aR,9bR)-9b-(benzenesulfonyl)-7-[(2,6-dichlorophenyl)methoxy]-N-(2-methanesulfonylethyl)-1H,2H,3H,3aH,4H,5H,9bH-benzo[e]indole-3-carboxamide] | 6.71 |
| CS(=O)(=O)C1CCN(C(=O)N2CC[C@@]3(S(=O)(=O)c4ccccc4)c4ccc(OCc5c(Cl)cccc5Cl)cc4CC[C@@H]23)C1 (stereo partly drawn) [Example 93, 1-[(3aR,9bR)-9b-(benzenesulfonyl)-7-[(2,6-dichlorophenyl)methoxy]-1H,2H,3H,3aH,4H,5H,9bH-benzo[e]indole-3-carbonyl]-3-methanesulfonylpyrrolidine] | 6.54 |
| CC(=O)N1CCN(C(=O)N2CC[C@@]3(S(=O)(=O)c4ccccc4)c4ccc(OCc5c(Cl)cccc5Cl)cc4CC[C@@H]23)CC1 [Example 94, 1-{4-[(3aR,9bR)-9b-(benzenesulfonyl)-7-[(2,6-dichlorophenyl)methoxy]-1H,2H,3H,3aH,4H,5H,9bH-benzo[e]indole-3-carbonyl]piperazin-1-yl}ethan-1-one] | 7.82 |
| O=C(Nc1ccnnc1)N1CC[C@@]2(S(=O)(=O)c3ccccc3)c3ccc(OCc4c(Cl)cccc4Cl)cc3CC[C@@H]12 [Example 95, (3aR,9bR)-9b-(benzenesulfonyl)-7-[(2,6-dichlorophenyl)methoxy]-N-(pyridazin-4-yl)-1H,2H,3H,3aH,4H,5H,9bH-benzo[e]indole-3-carboxamide] | 6.71 |
| O=C(N1CC[C@@]2(S(=O)(=O)c3ccccc3)c3ccc(OCc4c(Cl)cccc4Cl)cc3CC[C@@H]12)C1(O)CCOCC1 [Example 96, 4-[(3aR,9bR)-9b-(benzenesulfonyl)-7-[(2,6-dichlorophenyl)methoxy]-1H,2H,3H,3aH,4H,5H,9bH-benzo[e]indole-3-carbonyl]oxan-4-ol] | 7.89 |
| CN1CCCC(C(=O)N2CC[C@@]3(S(=O)(=O)c4ccccc4)c4ccc(OCc5c(Cl)cccc5Cl)cc4CC[C@@H]23)C1 (stereo partly drawn) [Example 97, 3-[(3aR,9bR)-9b-(benzenesulfonyl)-7-[(2,6-dichlorophenyl)methoxy]-1H,2H,3H,3aH,4H,5H,9bH-benzo[e]indole-3-carbonyl]-1-methylpiperidine] | 6.07 |
| CS(=O)(=O)N1CC(C(=O)N2CC[C@@]3(S(=O)(=O)c4ccccc4)c4ccc(OCc5c(Cl)cccc5Cl)cc4CC[C@@H]23)C1 [Example 98, 3-[(3aR,9bR)-9b-(benzenesulfonyl)-7-[(2,6-dichlorophenyl)methoxy]-1H,2H,3H,3aH,4H,5H,9bH-benzo[e]indole-3-carbonyl]-1-methanesulfonylazetidine] | 7.72 |
| CS(=O)(=O)n1cc(C(=O)N2CC[C@@]3(S(=O)(=O)c4ccccc4)c4ccc(OCc5c(Cl)cccc5Cl)cc4CC[C@@H]23)cn1 [Example 99, 4-[(3aR,9bR)-9b-(benzenesulfonyl)-7-[(2,6-dichlorophenyl)methoxy]-1H,2H,3H,3aH,4H,5H,9bH-benzo[e]indole-3-carbonyl]-1-methanesulfonyl-1H-pyrazole] | 6.13 |
| Cn1cc(C(=O)N2CC[C@@]3(S(=O)(=O)c4ccccc4)c4ccc(OCc5c(Cl)cccc5Cl)cc4CC[C@@H]23)cn1 [Example 100, 4-[(3aR,9bR)-9b-(benzenesulfonyl)-7-[(2,6-dichlorophenyl)methoxy]-1H,2H,3H,3aH,4H,5H,9bH-benzo[e]indole-3-carbonyl]-1-methyl-1H-pyrazole] | 6.50 |
| O=C(NC1CCS(=O)(=O)C1)N1CC[C@@]2(S(=O)(=O)c3ccccc3)c3ccc(OCc4c(Cl)cccc4Cl)cc3CC[C@@H]12 (stereo partly drawn) [Example 101, (3aR,9bR)-9b-(benzenesulfonyl)-7-[(2,6-dichlorophenyl)methoxy]-N-(1,1-dioxo-1λ^6-thiolan-3-yl)-1H,2H,3H,3aH,4H,5H,9bH-benzo[e]indole-3-carboxamide] | 7.21 |
| CC(C)S(=O)(=O)CC(=O)N1CC[C@@]2(S(=O)(=O)c3ccccc3)c3ccc(OCc4c(Cl)cccc4Cl)cc3CC[C@@H]12 [Example 102, 1-[(3aR,9bR)-9b-(benzenesulfonyl)-7-[(2,6-dichlorophenyl)methoxy]-1H,2H,3H,3aH,4H,5H,9bH-benzo[e]indol-3-yl]-2-(propane-2-sulfonyl)ethan-1-one] | 6.21 |
